Patent US20240000828A1 (priority 2020, published 2024)
Where “and” joins values, the source holds several entries; their conditions need not be identical. Identical values can stand only once. Like-named read-outs stand apart in the source and are kept apart here.

Assays:
glycoprotein B-2 (gpB-2) = glycoprotein B-2 (gpB-2) (Human herpesvirus 2, UniProt P08666); conditions: cited from earlier work
Ebola virus = conditions: cited from earlier work
gp120 = conditions: by binding gp120; cited from earlier work
Vero E6 cells = conditions: for Viability of Uninfected Vero E6 Cells (% Vehicle): 4-day treatment; for Viability of Uninfected Vero E6 Cells (A540): 4 days, individual replicates
[1] = tested on: SARS-CoV-2 (MEX-BC2/2020); experiment: Live SARS-CoV-2 CPE-based antiviral assay in Vero E6 cells (neutral red uptake); assay type: cell-based
[2] = tested on: influenza A/California/07/2009 (H1N1); experiment: microbe, parasite or virus in culture; assay type: cell-based, Influenza A Virus

glycoprotein B-2 (gpB-2), sequence (P08666 23-904 limits assumed): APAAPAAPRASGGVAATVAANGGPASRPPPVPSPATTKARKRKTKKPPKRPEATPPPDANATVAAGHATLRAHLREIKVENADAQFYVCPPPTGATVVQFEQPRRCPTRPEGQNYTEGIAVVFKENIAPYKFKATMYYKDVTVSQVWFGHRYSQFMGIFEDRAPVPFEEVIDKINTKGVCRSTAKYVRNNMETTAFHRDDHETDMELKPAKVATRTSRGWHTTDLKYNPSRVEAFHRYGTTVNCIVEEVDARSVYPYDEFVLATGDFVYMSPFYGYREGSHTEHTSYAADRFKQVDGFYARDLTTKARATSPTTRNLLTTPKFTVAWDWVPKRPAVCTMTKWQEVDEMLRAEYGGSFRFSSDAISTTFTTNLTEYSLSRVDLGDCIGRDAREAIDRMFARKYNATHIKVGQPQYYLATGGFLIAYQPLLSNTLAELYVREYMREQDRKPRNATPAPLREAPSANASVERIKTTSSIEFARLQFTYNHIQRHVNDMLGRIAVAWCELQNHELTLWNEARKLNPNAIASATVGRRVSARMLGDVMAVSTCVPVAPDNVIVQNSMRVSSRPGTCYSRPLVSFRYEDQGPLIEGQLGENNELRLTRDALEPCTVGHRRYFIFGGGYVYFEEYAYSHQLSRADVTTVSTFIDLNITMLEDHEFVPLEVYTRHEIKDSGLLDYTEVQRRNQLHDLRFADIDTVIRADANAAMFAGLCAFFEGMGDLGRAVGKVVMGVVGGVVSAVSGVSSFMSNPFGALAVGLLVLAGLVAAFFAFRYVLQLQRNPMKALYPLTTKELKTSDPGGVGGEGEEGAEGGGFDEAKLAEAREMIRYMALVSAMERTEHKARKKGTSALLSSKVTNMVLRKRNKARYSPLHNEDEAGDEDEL

**Q.** What does the source list for polyphenylene carboxymethylene [PPCM]?
**A.** binding to gpB-2, which prevents herpes attachment and fusion (glycoprotein B-2 (gpB-2)): binds; inhibition of Ebola virus (Ebola virus): inhibited; cell-to-cell transmission and primary infection by multiple clades of HIV-1 (gp120): prevents

**Q.** Which “Viability of Uninfected Vero E6 Cells (% Vehicle)” value (Vero E6 cells; 10%, cytotoxic agent control) does the source give for `C[S+](C)[O-]` [DMSO, Dimethyl sulfoxide] here?
**A.** Its value is −0.2 ± 0.0%.

**Q.** And the “Viability of Uninfected Vero E6 Cells (A540)” value (from here on “Viability … (A540)”) (Vero E6 cells; 10%, cytotoxic agent control)?
**A.** The value was 0.074 and 0.073.

**Q.** And the “block of cell viability” value (Vero E6 cells; tested at 10%)?
**A.** The value was “more than 99%”.

**Q.** For `N#C[C@@]1(c2ccc3c(N)ncnn23)O[C@H](CO)[C@@H](O)[C@H]1O` [GS-441524], which “Inhibition of SARS-CoV-2 (MEX-BC2/2020) Virus-Induced CPE (%)” value (shortened to “Inhibition … (%)”) ([1]; 0.03 μM, single data point) is on record?
**A.** Its value is −7.0%.

**Q.** What about the “Inhibition … (%)” value ([1]; 0.25 μM, single data point) of the same compound?
**A.** The value was 51.9%.

**Q.** And the “Inhibition … (%)” value ([1]; 0.74 μM, single data point)?
**A.** Its value is 89.7%.

**Q.** And the “prevention of the virus-induced CPE” value ([1]; 1 μM)?
**A.** Its value is “completely prevented”.

**Q.** And the “Inhibition … (%)” value ([1]; 1 μM, positive control wells)?
**A.** Its value is 112.3 ± 24.4%.

**Q.** And the “Inhibition … (%)” value ([1]; 2.2 μM, single data point)?
**A.** The value was 89.9%.

**Q.** What about the “Inhibition … (%)” value ([1]; 6.7 μM, single data point) of the same compound?
**A.** Its value is 96.3%.

**Q.** And the “Inhibition … (%)” value ([1]; 10 μM, positive control wells)?
**A.** The value was 117.2 ± 5.4%.

**Q.** What about the “prevention of the virus-induced CPE of the infected cells” value ([1]; control inhibitor, concentration not given) of the same compound?
**A.** The value was “prevented completely”.

**Q.** What about the IC50 ([1]; control inhibitor, single data points, Vero E6, 96 hours) of the same compound?
**A.** The IC50 was 170 nM.

**Q.** And the “Viability … (A540)” value (Vero E6 cells; 1 μM)?
**A.** The value was 1.404 and 1.753.

**Q.** And the “loss of viability in uninfected cells” value (Vero E6 cells; 10 μM)?
**A.** The value was “no significant loss of viability”.

**Q.** What about the “Viability … (A540)” value (Vero E6 cells; 10 μM) of the same compound?
**A.** The value was 1.616.

**Q.** Which “inhibition of cell viability” value (A549 cells; 10 μM) does the source give for `CC[C@H]1CN2CCc3cc(OC)c(OC)cc3[C@@H]2C[C@@H]1C[C@H]1NCCc2cc(OC)c(OC)cc21` [Emetine] here?
**A.** The value was “greater than 85%”.

**Q.** What about the “Viability in A549 cells (% Vehicle)” value (A549 cells; 10 μM, cytotoxic control) of the same compound?
**A.** Its value is 14.0 ± 4.6%.

**Q.** What about the “Viability in A549 Cells (A490)” value (A549 cells; 10 μM, cytotoxic control, 48 hours, individual replicates) of the same compound?
**A.** The value was 0.236 and 0.179.

**Q.** With `O=C1c2c(O)c(=O)ccn2N([C@@H]2c3ccccc3SCc3c2ccc(F)c3F)[C@@H]2COCCN12` [Baloxavir, baloxavir] as the compound, how does the “IAV Infectivity in A549 Cells (% Vehicle)” value ([2]; 0.01 nM, single data point) read?
**A.** The value was 95.3%.

**Q.** And the “IVA Infectivity in A549 Cells (Absorbance 490 nm)” value (“IVA Infectivity in A549 Cells” below) ([2]; 0.01 nM, single data point)?
**A.** The value was 1.064.

**Q.** What about the “IAV Infectivity in A549 Cells (% Vehicle)” value ([2]; 0.06 nM, single data point) of the same compound?
**A.** The value was 86.9%.

**Q.** And the “IVA Infectivity in A549 Cells” value ([2]; 0.06 nM, single data point)?
**A.** Its value is 1.000.

**Q.** And the “IAV Infectivity in A549 Cells (% Vehicle)” value ([2]; 0.32 nM, single data point)?
**A.** The value was 64.4%.

**Q.** What about the “IVA Infectivity in A549 Cells” value ([2]; 0.32 nM, single data point) of the same compound?
**A.** Its value is 0.828.

**Q.** And the “IAV Infectivity in A549 Cells (% Vehicle)” value ([2]; 1.6 nM, single data point)?
**A.** The value was 17.7%.

**Q.** What about the “IVA Infectivity in A549 Cells” value ([2]; 1.6 nM, single data point) of the same compound?
**A.** Its value is 0.471.

**Q.** What about the “IAV Infectivity in A549 Cells (% Vehicle)” value ([2]; 8.0 nM, single data point) of the same compound?
**A.** The value was 6.1%.

**Q.** What about the “IVA Infectivity in A549 Cells” value ([2]; 8.0 nM, single data point) of the same compound?
**A.** The value was 0.383.

**Q.** And the “IAV Infectivity in A549 Cells (% Vehicle)” value ([2]; 40 nM, single data point)?
**A.** Its value is 5.6%.

**Q.** What about the “IVA Infectivity in A549 Cells” value ([2]; 40 nM, single data point) of the same compound?
**A.** The value was 0.379.

**Q.** And the “IAV Infectivity in A549 Cells (% Vehicle)” value ([2]; 0.2 μM, positive control)?
**A.** The value was 6.0%.

**Q.** And the “IVA Infectivity in A549 Cells” value ([2]; 0.2 μM, positive control, 48 hours, individual replicates, listed as BLX)?
**A.** Its value is 0.383 and 0.391 and 0.374.

**Q.** And the “IAV Infectivity in A549 Cells (% Vehicle)” value ([2]; 200 nM, single data point)?
**A.** The value was 6.0%.

**Q.** What about the “IVA Infectivity in A549 Cells” value ([2]; 200 nM, single data point) of the same compound?
**A.** The value was 0.382.

**Q.** And the “IAV Infectivity in A549 Cells (% Vehicle)” value ([2]; 1,000 nM, single data point)?
**A.** The value was 10.8%.

**Q.** What about the “IVA Infectivity in A549 Cells” value ([2]; 1,000 nM, single data point) of the same compound?
**A.** The value was 0.419.

**Q.** What about the IC50 ([2]; Influenza A virus, H1N1, control antiviral, single data points, A549 cells, 48 hours, read-out: IC50, IAV Antiviral Assay) of the same compound?
**A.** Its IC50 is 0.49 nM.

**Q.** What about the block of infection ([2]; at some concentrations tested) of the same compound?
**A.** The block of infection was “over 99%”.

**Q.** What about the “Viability in A549 cells (% Vehicle)” value (A549 cells; 0.2 μM) of the same compound?
**A.** The value was 102.0 ± 2.4%.

**Q.** What does the source list for `CCN(CC)CCCC(C)Nc1ccnc2cc(Cl)ccc12` (centres unmarked) [CQ, chloroquine diphosphate]?
**A.** Absorbance (540 nm), SARS-CoV-2-induced CPE [1]: 0.985 and 1.011; Inhibition of SARS-CoV-2 (MEX-BC2/2020) Virus-Induced CPE (%) ([1]; 5 μM, positive control wells): 61.8 ± 2.5%; Viability of Uninfected Vero E6 Cells (% Vehicle) (Vero E6 cells; 5 μM): 75.9 ± 2.6%; Viability of Uninfected Vero E6 Cells (A540) (Vero E6 cells; 5 μM): 1.206 and 1.262
